In the NIST ThermoML archive (doi:10.1016/j.jct.2004.12.004):

Test: mn = molality of the nth substance listed, in mol/kg
Conditions: 350 kPa, Liquid, Extra sensitive DSC

OC[C@H]1O[C@@H](O[C@H]2[C@H](O)[C@@H](O)[C@H](O)O[C@@H]2CO)[C@H](O)[C@@H](O)[C@@H]1O [D-cellobiose] + O
apparent molar heat capacity [J/K/mol]
Conditions | m1 = 0.03222 | m1 = 0.05175 | m1 = 0.07986 | m1 = 0.09996 | m1 = 0.1501 | m1 = 0.3084
278.15 K | 562.9 | 563 | 562 | 561.2 | 563 | 566.4
283.15 K | 593 | 592.8 | 591.5 | 590.9 | 592 | 594.5
288.15 K | 619.4 | 618.8 | 617.3 | 616.9 | 617.5 | 619.6
293.15 K | 641.7 | 641.1 | 639.4 | 639.2 | 639.5 | 641.1
298.15 K | 661.3 | 660.7 | 658.6 | 658.8 | 658.7 | 660.1
303.15 K | 678.3 | 677.8 | 675.4 | 676.2 | 675.7 | 676.9
308.15 K | 693.2 | 692.9 | 690.6 | 691.5 | 690.9 | 691.8
313.15 K | 706.5 | 706.5 | 704.1 | 705 | 704.3 | 705.1
318.15 K | 718.8 | 718.9 | 716.6 | 717.5 | 716.7 | 717.3
323.15 K | 730 | 730.1 | 728 | 728.9 | 728.1 | 728.5
328.15 K | 740.4 | 740.7 | 738.6 | 739.5 | 738.7 | 739
333.15 K | 750.3 | 750.6 | 748.6 | 749.5 | 748.7 | 748.9
338.15 K | 759.6 | 759.9 | 758 | 758.9 | 758.1 | 758.3
343.15 K | 768.2 | 768.6 | 766.7 | 767.6 | 766.7 | 766.9
348.15 K | 776.4 | 776.6 | 774.8 | 775.8 | 774.9 | 775
353.15 K | 783.8 | 784.2 | 782.5 | 783.5 | 782.6 | 782.7
358.15 K | 791.1 | 791.5 | 789.8 | 790.8 | 789.9 | 789.9
363.15 K | 797.8 | 798.3 | 796.7 | 797.8 | 796.8 | 796.8
368.15 K | 803.8 | 804.6 | 803 | 804.1 | 803.1 | 803.1
373.15 K | 809.8 | 810.7 | 809 | 810.1 | 809.2 | 809.1
378.15 K | 815 | 816.2 | 814.6 | 815.8 | 814.7 | 814.7
383.15 K | 819.8 | 821.3 | 819.7 | 821.4 | 820 | 819.9
388.15 K | 823 | 825.3 | 824.1 | 827.6 | 824.9 | 824.8
393.15 K | 826.1 | 828.7 | 827.9 | 833 | 829.1 | 829.2
